Assay results taken from patent US20220184034A1, “METHODS FOR TREATING CUTANEOUS METASTATIC CANCERS” (Adgero Biopharmaceuticals Holdings, Inc., priority 2020, published 2022).

Key:
[1] = tested on: cutaneous lesions arising from either basal cell cancer, squamous cell cancer or CMBC; test: Phase 1/2 dose escalation study of SnET2 PDT: acute lesion reaction grade at Week 1; format: in vivo, patients; conditions: Week 1 post-treatment
Experimental: Two Phase 1/2 studies established the clinical dosimetry. The first study was a dose escalation study that enrolled a total of 22 patients with cutaneous lesions arising from either basal cell cancer, squamous cell cancer or CMBC. A total of 213 lesions were treated using photosensitizer SnET2) doses ranging from 0.1-1.2 mg/kg, light doses of 100, 150 or 200 J/cm^2 and treatment timepoints of 24, 48, or 72 hours post-infusion. Two key measures were utilized in these studies, lesion reaction and lesion response. Lesion reaction was an acute characterization of the treatment effect that was performed out to 1 week post-treatment according to the following scale: • Grade 0=No visual erythema or edema • Grade 1=Faint erythema and/or slight edema • Grade 2=Moderate erythema and edema • Grade 3=Severe discoloration, edema, sloughing or eschar
A further analysis was undertaken to explore the relationship between the acute lesion reaction and the lesion response. […] Following are the results from patients who were scored for lesion reaction at Week 1 post-treatment and who received a drug dose of 0.8 mg/kg or higher. […] For the 0.8 mg/kg cases, only 5 of the 37 lesions (14%) received the highest lesion reaction score. In the case of the 1.2 mg/kg dose group, the percentage of lesions with the maximum lesion reaction score, 13 of 22 (59%), was substantially higher.

CMBC lesions = test: Four phase 2/3 studies of SnET2 PDT: lesion treatment response; format: in vivo, patients; conditions: 1.2 mg/kg; for Responders / Response Rate of Evaluable Lesions: 200 J/cm^2, ~24 h, lesions larger than 1 cm; for lesion response rate: 200 J/cm^2
Experimental: A factor that impacts clinical outcome is the time delay required for post-treatment effects to resolve. This factor is observed in the results from four subsequent phase 2/3 studies of CMBC lesions using a fixed drug dose of 1.2 mg/kg and a fixed light dose of 200 J/cm^2 administered at approximately 24 hours post-infusion. In these studies lesions were first scored for lesion reaction and then scored for lesion treatment response after the lesion reaction had resolved. In the case of lesion reaction scoring, the reaction was first assessed by the investigator at approximately 4-week intervals and assigned a Reaction Score according to the following defined terms: • 0=No erythema, edema or residual eschar • 1=Mild (faint) erythema and/or slight edema present • 2=Moderate erythema and edema present • 3=Severe erythema and edema present • 4=Sloughing, ulceration, and/or eschar present • 5=Eschar requiring debridement
Once a lesion scored a Reaction Score of 0 or 1 it was deemed suitably healed for evaluation, at which time its treatment response was quantified by visual measurement of the two longest dimensions. In those cases where the patient left the study before a reaction score of 0-1 was reached, those lesions were classified as not evaluable.
An analysis conducted of the median time to lesion evaluation (time to reach a reaction score of 0 or 1) in these same four phase 2/3 CMBC trials indicates the time delay for post-treatment effects to resolve was closely associated with the acute (week 1-2 post-treatment) lesion reaction score, with higher acute reaction scores being associated with a longer time to lesion evaluation, consistent with a more severe treatment reaction requiring a longer time to resolve. […] Because larger lesions are most likely to be clinically relevant, this table only includes those lesions from the same four CMBC phase 2/3 trials that had baseline dimensions larger than 1 cm.

[2] = acute lesion reaction score 0-1
[3] = acute lesion reaction score 2-3
[4] = acute lesion reaction score 4-5

% with Max Rx Score at Week 1 ([1]; 0.8 mg/kg, 100 J/cm^2): 0%
Total with Max Rx Score at Week 1 ([1]; 0.8 mg/kg, 100 J/cm^2): 0
% with Max Rx Score at Week 1 ([1]; 0.8 mg/kg, 150 J/cm^2): 7%
Total with Max Rx Score at Week 1 ([1]; 0.8 mg/kg, 150 J/cm^2): 1
% with Max Rx Score at Week 1 ([1]; 0.8 mg/kg, 200 J/cm^2): 27%
Total with Max Rx Score at Week 1 ([1]; 0.8 mg/kg, 200 J/cm^2): 4
lesions with the highest lesion reaction score ([1]; 0.8 mg/kg): 5 of the 37
percentage of lesions with the highest lesion reaction score ([1]; 0.8 mg/kg): 14%
% with Max Rx Score at Week 1 ([1]; 1.0 mg/kg, 100 J/cm^2): 0%
Total with Max Rx Score at Week 1 ([1]; 1.0 mg/kg, 100 J/cm^2): 0
% with Max Rx Score at Week 1 ([1]; 1.0 mg/kg, 150 J/cm^2): 0%
Total with Max Rx Score at Week 1 ([1]; 1.0 mg/kg, 150 J/cm^2): 0
% with Max Rx Score at Week 1 ([1]; 1.0 mg/kg, 200 J/cm^2): 0%
Total with Max Rx Score at Week 1 ([1]; 1.0 mg/kg, 200 J/cm^2): 0
% with Max Rx Score at Week 1 ([1]; 1.2 mg/kg, 100 J/cm^2): 33%
Total with Max Rx Score at Week 1 ([1]; 1.2 mg/kg, 100 J/cm^2): 2
% with Max Rx Score at Week 1 ([1]; 1.2 mg/kg, 150 J/cm^2): 78%
Total with Max Rx Score at Week 1 ([1]; 1.2 mg/kg, 150 J/cm^2): 7
% with Max Rx Score at Week 1 ([1]; 1.2 mg/kg, 200 J/cm^2): 57%
Total with Max Rx Score at Week 1 ([1]; 1.2 mg/kg, 200 J/cm^2): 4
lesions with the maximum lesion reaction score ([1]; 1.2 mg/kg): 13 of 22
percentage of lesions with the maximum lesion reaction score ([1]; 1.2 mg/kg): 59%
Substance: tin ethyl etiopurpurin [SnET2]
Responders (CMBC lesions; [2]): 48
Response Rate of Evaluable Lesions (CMBC lesions; [2]): 63%
Responders (CMBC lesions; [3]): 168
Response Rate of Evaluable Lesions (CMBC lesions; [3]): 81%
Responders (CMBC lesions; [4]): 179
Response Rate of Evaluable Lesions (CMBC lesions; [4]): 88%
lesion response rate (CMBC lesions; acute lesion reactions of 2-3): 81%
lesion response rate (CMBC lesions; acute reactions of 4-5): 88%
